≈ marks a conversion by molar mass, not a printed value. Where “and” joins values, the source holds several entries; their conditions need not be identical. Equal values may be shown once. Read-outs that look alike come from different tables or passages of the source.
Assays:
[1] = molecular target: p97 ATPase (Homo sapiens, UniProt P55072); experiment: p97 ATPase assay; assay type: biochemical; settings: for IC50: triplicate, mean ±SD
[2] = system: Ub^G76V–GFP (p97-dependent reporter); experiment: Ub^G76V–GFP reporter degradation assay, dual reporter HeLa cell line; assay type: cell-based; settings: read-out: IC50 Ub^G76V–GFP, triplicate, mean ±SD
[3] = system: ODD-Luc (p97-independent proteasome substrate); experiment: ODD-Luc reporter degradation assay, dual reporter HeLa cell line; assay type: cell-based; settings: Homo sapiens, read-out: IC50 ODD-Luc
[4] = system: HCT15; experiment: Cytotoxicity / antiproliferative activity; assay type: cell-based; settings: Homo sapiens
[5] = system: SW403; experiment: Cytotoxicity / antiproliferative activity; assay type: cell-based; settings: Homo sapiens
[6] = system: HMEC, PHMLEB, PHMLER cells; experiment: Cellular viability; assay type: cell-based, human; settings: 24 h, CellTiter-Glo
[7] = system: ubiquitin conjugates; experiment: Ubiquitin conjugate accumulation immunoblot, SW403 cells; settings: 5–10 μM; nuclear plus membrane and cytosolic compartments
[8] = system: NCI 60 cancer cell lines; experiment: NCI 60-cell-line screen; assay type: cell-based; settings: 48 h; for Mean GP: mean of 60 NCI cell lines ±SD
[9] = Aqueous solubility; assay type: physicochemical; settings: aqueous buffer
[10] = PAMPA; assay type: in vitro ADME; settings: acceptor pH 7.4; for Papp: PAMPA; for PAMPA Pe: in the presence of 20% CH3CN
[11] = Plasma protein binding; assay type: in vitro ADME; settings: human
[12] = Plasma protein binding; assay type: in vitro ADME; settings: mouse
[13] = Plasma stability; assay type: in vitro ADME; settings: human
[14] = Plasma stability; assay type: in vitro ADME; settings: mouse
[15] = Hepatic microsome stability; assay type: in vitro ADME; settings: human, liver microsomes
[16] = Hepatic microsome stability; assay type: in vitro ADME; settings: mouse, liver microsomes
[17] = Hepatic toxicity; assay type: cell-based; settings: human, Fa2N-4 immortalized human hepatocytes
[18] = system: poly(ADP-ribose) polymerase (PARP); experiment: PARP cleavage immunoblot, SW403 cells; assay type: cell-based; settings: 2 h
[19] = system: caspases 3 and 7; experiment: Caspase 3 and 7 activity in colon cancer cell lines; assay type: cell-based; settings: multiple colon cancer cell lines; dose- and time-dependent
[20] = molecular target: 5-HT5a (Homo sapiens, UniProt P47898); experiment: CNS panel binding; settings: 5HT5a receptor
[21] = molecular target: JAK1 domain1 (Homo sapiens, UniProt P23458); experiment: KiNativ profiling; assay type: binding; settings: 20 μM, Other
[22] = molecular target: PIP5K3 (Homo sapiens, UniProt Q9Y2I7); experiment: KiNativ profiling; assay type: binding; settings: 20 μM, ATP
[23] = system: LC3-II; experiment: Autophagy reporter LC3-II immunoblot; settings: for accumulation of lipidated LC3-II: HEK293, 5 h
[24] = system: ∼170 kinases; experiment: KiNativ kinase profiling, whole panel, PC3 cell lysate; assay type: binding, Homo sapiens; settings: 20 μM
[25] = HCT-15, 24 h, read-out: Cytotoxicity GI50 HCT15 24 h
[26] = HCT-15, 72 h, read-out: Cytotoxicity GI50 HCT15 72 h
[27] = SW-403, 24 h, read-out: Cytotoxicity GI50 SW403 24 h
[28] = SW-403, 72 h, read-out: Cytotoxicity GI50 SW403 72 h

Sequence of p97 ATPase (P55072 whole entry): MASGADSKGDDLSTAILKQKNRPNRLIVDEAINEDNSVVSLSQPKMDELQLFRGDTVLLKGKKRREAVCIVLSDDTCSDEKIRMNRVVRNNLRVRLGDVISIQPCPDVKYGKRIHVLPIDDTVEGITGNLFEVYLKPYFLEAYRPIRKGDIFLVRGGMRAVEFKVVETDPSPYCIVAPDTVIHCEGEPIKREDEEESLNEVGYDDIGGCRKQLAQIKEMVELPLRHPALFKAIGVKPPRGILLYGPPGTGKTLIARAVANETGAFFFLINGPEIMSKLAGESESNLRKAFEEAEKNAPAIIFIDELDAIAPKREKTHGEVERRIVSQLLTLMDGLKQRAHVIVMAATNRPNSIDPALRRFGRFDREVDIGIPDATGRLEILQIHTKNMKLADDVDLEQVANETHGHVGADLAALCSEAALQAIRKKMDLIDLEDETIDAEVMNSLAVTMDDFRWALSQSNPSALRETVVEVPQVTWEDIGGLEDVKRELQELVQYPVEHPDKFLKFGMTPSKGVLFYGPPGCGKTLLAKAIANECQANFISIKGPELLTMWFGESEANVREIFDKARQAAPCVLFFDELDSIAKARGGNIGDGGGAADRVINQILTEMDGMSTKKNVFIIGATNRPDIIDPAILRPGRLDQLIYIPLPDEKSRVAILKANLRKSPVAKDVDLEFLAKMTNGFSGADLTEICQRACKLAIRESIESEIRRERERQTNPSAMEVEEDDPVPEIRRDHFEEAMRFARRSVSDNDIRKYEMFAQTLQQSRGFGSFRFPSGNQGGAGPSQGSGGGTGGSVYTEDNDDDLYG
Sequence of 5-HT5a (P47898 whole entry, species assumed, the tested form may be a part): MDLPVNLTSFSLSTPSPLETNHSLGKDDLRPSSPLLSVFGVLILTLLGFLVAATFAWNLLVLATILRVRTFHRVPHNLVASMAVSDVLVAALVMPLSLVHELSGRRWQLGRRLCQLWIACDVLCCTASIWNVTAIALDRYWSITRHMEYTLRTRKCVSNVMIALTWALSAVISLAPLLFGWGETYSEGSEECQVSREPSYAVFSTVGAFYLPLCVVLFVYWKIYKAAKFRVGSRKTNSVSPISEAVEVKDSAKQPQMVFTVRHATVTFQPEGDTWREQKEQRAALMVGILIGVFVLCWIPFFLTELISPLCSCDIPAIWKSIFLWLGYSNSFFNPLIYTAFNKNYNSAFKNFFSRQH
Sequence of PIP5K3 (Q9Y2I7 whole entry): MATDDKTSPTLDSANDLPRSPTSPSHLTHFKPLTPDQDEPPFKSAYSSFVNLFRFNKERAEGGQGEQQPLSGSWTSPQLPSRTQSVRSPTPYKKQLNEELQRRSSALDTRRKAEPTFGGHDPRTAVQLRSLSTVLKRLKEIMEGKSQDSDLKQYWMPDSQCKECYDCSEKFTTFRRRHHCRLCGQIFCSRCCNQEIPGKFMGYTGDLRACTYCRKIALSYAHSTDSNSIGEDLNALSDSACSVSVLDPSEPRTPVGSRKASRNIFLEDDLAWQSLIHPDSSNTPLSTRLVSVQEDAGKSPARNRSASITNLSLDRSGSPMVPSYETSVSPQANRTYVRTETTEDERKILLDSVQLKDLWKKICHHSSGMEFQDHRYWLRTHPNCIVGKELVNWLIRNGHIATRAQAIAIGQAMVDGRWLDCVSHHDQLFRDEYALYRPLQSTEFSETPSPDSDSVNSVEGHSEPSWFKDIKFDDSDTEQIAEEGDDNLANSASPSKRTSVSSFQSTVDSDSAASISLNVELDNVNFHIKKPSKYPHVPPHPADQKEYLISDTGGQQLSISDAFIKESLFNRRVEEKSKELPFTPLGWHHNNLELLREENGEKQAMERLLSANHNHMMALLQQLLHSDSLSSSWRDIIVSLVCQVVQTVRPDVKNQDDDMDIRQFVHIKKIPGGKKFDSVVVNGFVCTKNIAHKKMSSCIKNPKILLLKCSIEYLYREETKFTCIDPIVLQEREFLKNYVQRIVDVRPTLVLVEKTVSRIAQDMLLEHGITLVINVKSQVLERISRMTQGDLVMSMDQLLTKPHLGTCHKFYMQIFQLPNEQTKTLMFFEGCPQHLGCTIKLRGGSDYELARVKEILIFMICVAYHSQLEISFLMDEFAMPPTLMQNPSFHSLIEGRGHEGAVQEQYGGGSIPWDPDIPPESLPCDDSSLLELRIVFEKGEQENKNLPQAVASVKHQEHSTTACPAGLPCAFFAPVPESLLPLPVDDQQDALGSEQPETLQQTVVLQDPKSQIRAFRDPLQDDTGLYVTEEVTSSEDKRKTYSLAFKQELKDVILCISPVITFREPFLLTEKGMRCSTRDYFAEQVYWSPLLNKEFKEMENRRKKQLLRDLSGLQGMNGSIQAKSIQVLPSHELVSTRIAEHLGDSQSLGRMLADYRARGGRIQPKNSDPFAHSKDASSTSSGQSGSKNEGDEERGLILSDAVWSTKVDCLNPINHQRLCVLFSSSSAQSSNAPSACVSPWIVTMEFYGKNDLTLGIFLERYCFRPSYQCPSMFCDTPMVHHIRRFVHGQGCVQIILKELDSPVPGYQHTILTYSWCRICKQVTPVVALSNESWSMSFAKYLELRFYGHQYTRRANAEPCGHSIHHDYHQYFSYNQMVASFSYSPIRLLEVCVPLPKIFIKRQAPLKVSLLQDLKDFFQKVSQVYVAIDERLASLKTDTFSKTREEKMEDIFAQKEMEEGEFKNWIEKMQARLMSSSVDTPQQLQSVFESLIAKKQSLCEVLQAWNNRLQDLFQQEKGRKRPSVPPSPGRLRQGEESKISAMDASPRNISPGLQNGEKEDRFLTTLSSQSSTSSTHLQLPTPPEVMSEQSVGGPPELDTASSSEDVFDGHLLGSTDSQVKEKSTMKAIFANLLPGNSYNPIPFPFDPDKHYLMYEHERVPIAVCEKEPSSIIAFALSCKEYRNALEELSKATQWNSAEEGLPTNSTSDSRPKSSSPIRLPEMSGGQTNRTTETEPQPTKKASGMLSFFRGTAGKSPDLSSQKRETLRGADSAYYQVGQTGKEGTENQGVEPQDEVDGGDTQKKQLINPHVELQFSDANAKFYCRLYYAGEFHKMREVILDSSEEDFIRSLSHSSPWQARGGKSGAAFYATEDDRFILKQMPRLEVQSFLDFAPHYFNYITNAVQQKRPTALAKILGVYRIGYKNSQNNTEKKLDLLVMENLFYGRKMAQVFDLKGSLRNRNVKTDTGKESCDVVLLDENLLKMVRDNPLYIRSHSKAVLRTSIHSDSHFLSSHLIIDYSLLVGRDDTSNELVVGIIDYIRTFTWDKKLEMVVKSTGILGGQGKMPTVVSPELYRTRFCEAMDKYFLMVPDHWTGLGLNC
Sequence of JAK1 domain1 (P23458 whole entry, the tested form may be a part): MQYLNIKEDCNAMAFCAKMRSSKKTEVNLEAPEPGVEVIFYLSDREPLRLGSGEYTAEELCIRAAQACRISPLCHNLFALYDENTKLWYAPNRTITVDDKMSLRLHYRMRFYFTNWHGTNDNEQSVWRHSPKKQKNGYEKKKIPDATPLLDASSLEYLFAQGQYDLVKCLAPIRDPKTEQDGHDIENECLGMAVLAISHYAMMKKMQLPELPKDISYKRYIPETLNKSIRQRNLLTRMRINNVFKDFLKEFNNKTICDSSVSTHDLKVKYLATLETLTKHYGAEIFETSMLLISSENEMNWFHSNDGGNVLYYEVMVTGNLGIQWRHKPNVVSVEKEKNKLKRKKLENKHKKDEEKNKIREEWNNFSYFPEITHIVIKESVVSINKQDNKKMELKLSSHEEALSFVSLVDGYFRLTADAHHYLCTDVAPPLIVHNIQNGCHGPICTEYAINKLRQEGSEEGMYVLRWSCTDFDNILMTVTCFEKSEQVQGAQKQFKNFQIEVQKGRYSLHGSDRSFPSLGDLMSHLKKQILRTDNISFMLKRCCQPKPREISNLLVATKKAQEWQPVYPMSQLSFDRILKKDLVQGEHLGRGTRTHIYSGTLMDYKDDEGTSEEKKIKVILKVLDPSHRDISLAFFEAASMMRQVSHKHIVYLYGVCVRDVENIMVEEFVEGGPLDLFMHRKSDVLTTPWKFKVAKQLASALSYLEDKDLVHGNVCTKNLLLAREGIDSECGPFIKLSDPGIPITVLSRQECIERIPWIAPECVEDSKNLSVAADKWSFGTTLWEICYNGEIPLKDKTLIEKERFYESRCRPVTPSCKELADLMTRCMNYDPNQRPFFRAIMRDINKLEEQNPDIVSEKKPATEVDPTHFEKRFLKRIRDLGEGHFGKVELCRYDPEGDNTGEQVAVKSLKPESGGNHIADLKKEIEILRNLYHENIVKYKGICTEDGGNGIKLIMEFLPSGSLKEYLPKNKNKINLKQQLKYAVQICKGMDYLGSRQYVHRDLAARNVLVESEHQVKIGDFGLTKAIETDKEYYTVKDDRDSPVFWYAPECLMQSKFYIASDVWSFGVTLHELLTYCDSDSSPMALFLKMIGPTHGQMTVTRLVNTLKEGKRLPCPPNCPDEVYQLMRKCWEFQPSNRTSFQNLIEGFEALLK

2-(2-Amino-5-bromo-1H-benzo[d]imidazol-1-yl)-N-benzyl-8-methoxyquinazolin-4-amine and 2-(2-Amino-6-bromo-1H-benzo[d]imidazol-1-yl)-N-benzyl-8-methoxyquinazolin-4-amine [compound 24]
IC50 ([1]; read-out: IC50 ATPase): 0.8 ± 0.3 µM | IC50 [2]: 30 ± 10 µM

2-(2-Amino-5-chloro-1H-benzo[d]imidazol-1-yl)-N-benzyl-8-methoxyquinazolin-4-amine and 2-(2-Amino-6-chloro-1H-benzo[d]imidazol-1-yl)-N-benzyl-8-methoxyquinazolin-4-amine [compound 23]
IC50 ([1]; read-out: IC50 ATPase): 0.7 ± 0.3 µM | IC50 [2]: 31 ± 7 µM

2-(2-Amino-5-fluoro-1H-benzo[d]imidazol-1-yl)-N-benzyl-8-methoxyquinazolin-4-amine and 2-(2-Amino-6-fluoro-1H-benzo[d]imidazol-1-yl)-N-benzyl-8-methoxyquinazolin-4-amine [compound 30]
IC50 ([1]; read-out: IC50 ATPase): 0.08 ± 0.02 µM | IC50 [2]: 6.8 ± 1 µM

2-(2-Amino-5-methoxy-1H-benzo[d]imidazol-1-yl)-N-benzyl-8-methoxyquinazolin-4-amine and 2-(2-Amino-6-methoxy-1H-benzo[d]imidazol-1-yl)-N-benzyl-8-methoxyquinazolin-4-amine [compound 26]
IC50 ([1]; read-out: IC50 ATPase): 0.48 ± 0.09 µM | IC50 [2]: 0.96 ± 0.2 µM

2-(2-Amino-5-methyl-1H-benzo[d]imidazol-1-yl)-N-benzyl-8-methoxyquinazolin-4-amine and 2-(2-Amino-6-methyl-1H-benzo[d]imidazol-1-yl)-N-benzyl-8-methoxyquinazolin-4-amine [compound 25]
IC50 ([1]; read-out: IC50 ATPase): 0.24 ± 0.06 µM | IC50 [2]: 2.5 ± 0.5 µM

c1ccc(CNc2nc(NCc3ccccc3)c3ccccc3n2)cc1 [DBeQ, N^2,N^4-dibenzylquinazoline-2,4-diamine]
IC50 ([1]; IC50 ATPase): 1.6 µM | IC50 [3]: 56 ± 14 µM | GI50 [4, 25]: 3.2 ± 1 µM | GI50 [4, 26]: 1.8 ± 0.7 µM | GI50 [5, 27]: 2.2 ± 0.6 µM | GI50 [5, 28]: 1.4 ± 0.5 µM | potency on normal vs immortalized and tumorigenic cell lines [6]: slightly greater potency toward the immortalized and transformed cells | accumulation of ubiquitin conjugates [7]: caused accumulation of ubiquitin conjugates

COc1cccc2c(NCc3ccccc3)nc(-n3c(N)nc4ccccc43)nc12 [ML240, 2-(2-Amino-1H-benzo[d]imidazol-1-yl)-N-benzyl-8-methoxyquinazolin-4-amine]
Ki [1]: 0.22 µM | mechanism of p97 inhibition with respect to ATP [1]: competitively | IC50 ([1]; IC50 ATPase): ~0.1 µM and 0.1 µM | IC50 [3]: 28 ± 7 µM | GI50 [4, 25]: 0.76 ± 0.14 µM | GI50 [4, 26]: 0.54 ± 0.19 µM | GI50 [5, 27]: 0.5 ± 0.07 µM | GI50 [5, 28]: 0.5 ± 0.1 µM | Highest GP ([8]; least inhibited individual cancer cell line): −43.8 (HS 578T) % | Mean GP [8]: −84.5±15.5% | Lowest GP ([8]; most inhibited individual cancer cell line): −100.0 (OVCAR-4) % | solubility ([9]; pH 5, aqueous buffer): 0.35 µg/mL (≈ 0.883 µM) | solubility ([9]; pH 6.2, aqueous buffer): 0.33 µg/mL (≈ 0.832 µM) | solubility ([9]; pH 7.4, aqueous buffer): 0.27 µg/mL (≈ 0.681 µM) | Papp ([10]; PAMPA Pe, donor pH 5.0): 357 ×10⁻⁶ cm/s | Papp ([10]; PAMPA Pe, donor pH 6.2): 628 ×10⁻⁶ cm/s | Papp ([10]; pH 7.4, PAMPA Pe, donor pH 7.4): < 60.3 ×10⁻⁶ cm/s | fraction unbound at 1 μM [11]: 0.0047 | fraction unbound at 10 μM [11]: 0.0029 | fraction unbound at 1 μM [12]: 0.0027 | fraction unbound at 10 μM [12]: 0.0037 | remaining at 3 h [13]: 100% | remaining at 3 h [14]: 100% | remaining at 1 h [15]: 54.3% | remaining at 1 h [16]: 0.63% | CC50 [17]: 8.5 µM | cleavage of PARP [18]: induced efficient cleavage | potency on normal vs immortalized and tumorigenic cell lines [6]: slightly greater potency toward the immortalized and transformed cells | induction of caspase activity [19]: induced caspase activity | Ki [20]: 2.5 µM | % Inhibition [21]: > 50% | % Inhibition [22]: > 50% | time of LC3-II accumulation after addition of drug ([23]; HCT116, 10 μM, as early as): 10 min | accumulation of lipidated LC3-II [23]: induced accumulation | accumulation of ubiquitin conjugates [7]: caused accumulation of ubiquitin conjugates

c1ccc(CNc2nc(N3CCOc4ccccc43)nc3c2CCCC3)cc1 [ML241, 2-(2H-Benzo[b][1,4]oxazin-4(3H)-yl)-N-benzyl-5,6,7,8-tetrahydroquinazolin-4-amine]
Ki [1]: 0.35 µM | mechanism of p97 inhibition with respect to ATP [1]: competitively | IC50 ([1]; IC50 ATPase): ~0.1 µM and 0.1 µM | IC50 [3]: 46 ± 8 µM | GI50 [4, 25]: 53 ± 5 µM | GI50 [4, 26]: 13 ± 4 µM | GI50 [5, 27]: 33 ± 7 µM | GI50 [5, 28]: 12 ± 3 µM | Mean GP [8]: 92.8±22.8% | solubility ([9]; pH 5, aqueous buffer): 28 µg/mL (≈ 75.2 µM) | solubility ([9]; pH 6.2, aqueous buffer): 0.13 µg/mL (≈ 0.349 µM) | solubility ([9]; pH 7.4, aqueous buffer): 0.2 µg/mL (≈ 0.537 µM) | PAMPA Pe ([10]; donor pH 5.0): 1164 ×10⁻⁶ cm/s | PAMPA Pe ([10]; donor pH 6.2): 2504 ×10⁻⁶ cm/s | PAMPA Pe ([10]; donor pH 7.4): 2278 ×10⁻⁶ cm/s | fraction unbound at 1 μM [11]: 0.0003 | fraction unbound at 10 μM [11]: 0.0005 | fraction unbound at 1 μM [12]: 0.0005 | fraction unbound at 10 μM [12]: 0.0009 | remaining at 3 h [13]: 100% | remaining at 3 h [14]: 100% | remaining at 1 h [15]: 19% | remaining at 1 h [16]: 2.57% | CC50 [17]: > 50 µM | inhibition of labeling across the panel [24]: did not appreciably inhibit labeling | accumulation of lipidated LC3-II [23]: lack of effect | accumulation of ubiquitin conjugates [7]: caused accumulation of ubiquitin conjugates

CO/C1=C\C(C)=C\[C@@H](C)[C@@H](O)[C@@H](C)C/C(C)=C/C=C/[C@H](OC)[C@@H]([C@@H](C)[C@@H](O)[C@H](C)[C@@]2(O)C[C@@H](O)[C@H](C)[C@@H](C(C)C)O2)OC1=O [bafilomycin, reference compound]
potency on normal vs immortalized and tumorigenic cell lines [6]: equal potency

CC(C)C[C@H](NC(=O)[C@H](Cc1ccccc1)NC(=O)c1cnccn1)B(O)O [bortezomib, reference compound]
potency on normal vs immortalized and tumorigenic cell lines [6]: equal potency

CCN(CC)CCOc1cccc2c(NCc3ccccc3)nc(N3CCOc4ccccc43)nc12 [compound 35, 2-(2H-Benzo[b][1,4]oxazin-4(3H)-yl)-N-benzyl-8-(2-(diethylamino)ethoxy)quinazolin-4-amine]
IC50 [3]: 61 ± 6 µM | GI50 [4, 25]: 13 ± 5 µM | GI50 [4, 26]: 7.1 ± 2.5 µM | GI50 [5, 27]: 11 ± 5 µM | GI50 [5, 28]: 3.9 ± 1 µM

COc1cccc2c(NCc3ccccc3)nc(N3CCOc4ccccc43)nc12 [compound 38, 2-(2H-Benzo[b][1,4]oxazin-4(3H)-yl)-N-benzyl-8-methoxyquinazolin-4-amine]
IC50 [3]: > 20 µM | GI50 [4, 25]: 25 ± 5 µM | GI50 [4, 26]: 12 ± 3 µM | GI50 [5, 27]: 43 ± 11 µM | GI50 [5, 28]: 13 ± 4 µM

COc1cccc2c(NCc3ccc(F)cc3)nc(N3CCOc4ccccc43)nc12 [compound 40, 2-(2H-Benzo[b][1,4]oxazin-4(3H)-yl)-N-(4-fluorobenzyl)-8-methoxyquinazolin-4-amine]
IC50 [3]: > 20 µM | GI50 [4, 25]: 27 ± 4 µM | GI50 [4, 26]: 8.9 ± 2.3 µM | GI50 [5, 27]: 21 ± 6 µM | GI50 [5, 28]: 9.4 ± 2.6 µM

CCCCNc1ncc2c(-c3ccc(F)cc3)nn(C[C@H]3CC[C@H](N)CC3)c2n1 [pyrazolopyrimidine, reference compound]
number of protein kinases (domains) with >50% inhibition of labeling [24]: 56

From publication PMC3662613 (Chemmedchem, 2013)
